Columns and labels:
herpes simplex type 1 = test: plaque reduction assay, inhibition of virus multiplication in cell cultures; format: cell-based; settings: herpes simplex type 1 plaque on Vero cell mono-layers
Experimental: The inhibition of herpesvirus by VIS 590 and VSA 687 has been measured as plaque reduction according to the following procedure. The plaque reduction assay for herpes simplex type 1 was performed on Vero (Green Monkey Kidney) cells as described by Ejercito et al., J. Gen. Virol. 2 (1968) 357. Monolayers on 5 cm petri dishes were used and after virus adsorption the compounds to be tested were added to-the medium.

Vero cells = test: cellular toxicity, reduction in cell growth; format: cell-based, Green Monkey; settings: at 100 µM
Experimental: (§1) The method used has been described by Stenberg (Biochemical Pharmacology, Vol. 30 (1980), 1005-1008). […] However, at this concentration, herpes virus multiplication was inhibited to more than 90% (see Table 1). Table 2. Cellular toxicity of VIS 590 expressed as percent reduction in cell growth after 48 h of incubation.

[1] = cellular toxicity, reduction in cell growth; format: cell-based, Green Monkey; settings: monkey, vero cells; Conc. 100 µM; after 48 h of incubation; read-out: Percent reduction in growth of Vero cells, determined as cell number
Experimental: as §1

Question: Which results are given for `Nc1nc2c(ncn2CC(=O)CCO)c(=O)[nH]1` [VIS 590, 9-(2-oxo-4-hydroxybutyl)guanine]?
Answer: Inhibition % (herpes simplex type 1; Conc. 10 μ): 35%; effect on cell growth (in words) (Vero cells): did not affect cell growth; inhibition at 48 h, 100 µM [1]: 0%

Question: With `Nc1nc2c(ncn2CC(=O)C(O)CO)c(=O)[nH]1` (stereo not shown) [VSA 687, 9-(2-oxo-3,4-dihydroxybutyl)guanine] as the compound, how does the Inhibition % (herpes simplex type 1; Conc. 35 μ) read?
Answer: >90%

Source: patent EP0103552B1, “Novel derivatives of guanine” (priority 1982, dated 1984)
